# Patent publication US5478928A, “2',3'-dideoxy-4'-thioribonucleosides and synthetic precursors thereof” (priority 1993, dated 1995)
# Read-outs that look alike come from different tables or passages of the source.
# How the values were obtained:
# [1] = test system: CEM cells infected with HIV virus (HIV-1 isolates IIIB and/or RF); assay: Inhibition of HIV cytopathogenic effects (CPE) in CEM cells (MTT); format: cell-based; settings: for SI (selectivity index): TC25 divided by the ID50; for TAI (total antiviral index): area between the cytotoxicity and the antiviral curves; for IC50: Human immunodeficiency virus 1, IIIB, CCRF-CEM, read-out: IC50 (minimum drug concentration that inhibited CPE by 50%)
# Description: (§1) Compounds of the present invention are readily screened for anti-HIV activity by the following standard screening assay in CEM and MT2 cells.
# (§2) 1. Compound dilution and delivery to the plates. Test compounds are solubilized in the appropriate vehicle such as distilled water, DMSO, methyl alcohol, or other vehicle. The maximum solubility is determined as appropriate. Latex gloves, lab coats, and masks are used during all phases of the handling process to prevent exposure to potentially harmful agents. At highest solubility, the test compound is prepared and stored at -20° C. until used by the screening laboratory. The first dilution of each compound is made tube with medium to yield a concentration two-fold that of the highest test concentration. Sterile titer tubes are then used to make serial one half log dilutions of each compound. Following dilution, the diluted compound is added to the appropriate well of a 96-well microtiter plate. Up to 12 dilutions can be conveniently assayed in triplicate on a single plate with all appropriate controls, including cell control, virus control, toxicity control, drug color control, medium control and plastic control. When testing includes only six dilutions, two drugs can be assayed on a single microtiter plate. The test compounds are added to the plate in a final volume of 100 microliters.
# (§3) 2. Cells and virus. During the time that the test compound dilutions are prepared, cells are washed and counted. Viability is monitored by trypan blue dye exclusion and assays are not performed if the viability falls below 90%. Cells are maintained in an exponential growth phase and are split 1:2 on the day prior to assay to assure adequate growth rate. For the primary screen, the cell line utilized is CEM cells. […] However, both cell lines are available and being used at all times and can be substituted or used in addition to CEM cells as requested. Unless otherwise indicated, the medium is phenol red-free RPMI 1640 with 10% heat-inactivated fetal calf serum (FBS), glutamine and antibiotics. Cells are propagated at 37° C. in an atmosphere of 5% CO2 in air. The virus employed for this work is HIV-1 isolates IIIB and/or RF prepared by the acute infection process as follows: Briefly, virus infected cells are pelleted on a daily basis beginning at three days postinfection until the virus has killed all of the cells in the culture. Reverse transcriptase activity and p24 ELISA are used to identify pools with the greatest amount of virus. These 24-hour harvests are pooled, filtered and frozen at -90° C. Prior to use in the assay the virus is titered on all available cell lines in order to determine the amount of virus required in the assay. In general, pools produced by the acute virus method require the addition of one microliter of infectious virus per well resulting in the screening of drugs on a multiplicity of infection of 0.01. In this manner enough virus is prepared and frozen to complete over one thousand microtiter plates, allowing the testing of up to two thousand compounds from a single stock. […] Virus infection of the CEM cells is carried in a bulk infection process. The appropriate number of cells required to complete the assay are mixed with infectious virus in a conical centrifuge tube in a small total volume of 1-2 milliliters. Following a one hour incubation the infected cells are brought to the appropriate final concentration of 5×10^4 cells per milliliter with fresh tissue culture medium and 100 microliters are added to the appropriate experimental and virus control wells. Uninfected cells at the same concentration are plated for the toxicity controls and for the cell controls.
# (§4) 3. Evaluation of CPE-inhibition. Following the addition of cells and test compounds to the microtiter plate, the plate is incubated for 6 days at 37° C.
# CEM cells = assay: Cytotoxicity (cell viability) in CEM cells
# Description: as §1, §2, §3, §4
# MT-2 cells = assay: Cytotoxicity (cell viability) in MT-2 cells
# Description: as §1, §2, §3, §4
# [2] = test system: MT-2 cells infected with HIV virus (HIV-1 isolates IIIB and/or RF); assay: Inhibition of HIV cytopathogenic effects (CPE) in MT-2 cells (MTT); format: cell-based; settings: for IC50: Human immunodeficiency virus 1, IIIB; for SI (selectivity index): TC25 divided by the ID50; for TAI (total antiviral index): area between the cytotoxicity and the antiviral curves
# Description: as §1, §2, §3, §4
# AIDS = settings: cited from earlier work
# [3] = CEM cells, means of several experiments
# [4] = MT-2 cells, means of several experiments
# [5] = MT2, MT-2 cells, means of several experiments, read-out: IC50 (minimum drug concentration that inhibited CPE by 50%)
"IC50 [1, 3]",Compound,SI (selectivity index) ([1]; CEM cells),TAI (total antiviral index) ([1]; CEM cells),TC25 (minimum drug concentration that reduced cell viability by 25%) (CEM cells; [3]),TC25 (minimum drug concentration that reduced cell viability by 25%) (MT-2 cells; [4]),TAI (total antiviral index) ([2]; MT-2 cells),other results
0.45 µg/mL,Cc1cn([C@H]2C[C@H](N=[N+]=[N-])[C@@H](CO)S2)c(=O)[nH]c1=O,> 222.02,> 60.15,> 100 µg/mL,,,
,"Nc1nc2c(ncn2[C@H]2CC[C@@H](CO)S2)c(=O)[nH]1 [4'-thio-2',3'-dideoxy-guanosine, 4'-Thio-2',3'-dideoxy-guanosine]",,0.0,> 100 µg/mL,> 200 µg/mL,11.0,"IC50 [2, 5]: 98 µg/mL; SI (selectivity index) ([2]; MT-2 cells): 1.6"
1 µg/mL,"Nc1ccn([C@H]2CC[C@@H](CO)S2)c(=O)n1 [4'-thio-2',3'-dideoxycytidine, 4'-Thio-2',3'-dideoxycytidine]",> 100,> 65,> 100 µg/mL,,,
,"OC[C@@H]1CC[C@H](n2cnc3c(O)ncnc32)S1 [4'-thio-2',3'-dideoxyinosine, 4'-Thio-2',3'-dideoxyinosine]",,,,> 100 µg/mL,> 4.0,
,"Cc1cn([C@H]2CC[C@@H](CO)S2)c(=O)[nH]c1=O [4'-thio-3'-deoxythymidine, 4'-Thio-3'-deoxythymidine]",,4.0,> 150 µg/mL,> 100 µg/mL,> 4.0,
,"Nc1ncnc2c1ncn2[C@H]1CC[C@@H](CO)S1 [4-'-thio-2'3'-dideoxyadenosine, 4'-Thio-2',3'-dideoxyadenosine]",,,,> 100 µg/mL,> 17,"IC50 [2, 5]: 80 µg/mL; SI (selectivity index) ([2]; MT-2 cells): 1.3"
37 µg/mL,"Nc1nc(N)c2ncn([C@H]3CC[C@@H](CO)S3)c2n1 [9-(4-Thio-2,3-dideoxy-D-ribofuranosyl)-2,6-diaminopurine]",2.6,21.0,97.0 µg/mL,,,
,"Nc1nc(Cl)nc2c1ncn2[C@H]1CC[C@@H](CO)S1 [9-(4-Thio-2,3-dideoxy-D-ribofuranosyl)-2-chloro-6-aminopurine]",,,5.74 µg/mL,,,
,"OC[C@@H]1CC[C@H](n2cnc3c(Cl)ncnc32)S1 [9-(4-Thio-2,3-dideoxy-D-ribofuranosyl)-6-chloropurine]",,,,21 µg/mL,0.0,
,"Cc1cn([C@H]2C[C@H](N=[N+]=[N-])[C@@H](CO)O2)c(=O)[nH]c1=O [AZT, 3'-azido-3'-deoxythymidine, reference compound]",> 313,> 93,> 10 µg/mL,9.3 µg/mL,> 82,"potency for the treatment of AIDS (AIDS; background): particularly potent; side effects (AIDS; background): undesirable side effects; IC50 [1]: < 0.03 µg/mL; IC50 ([2]; MT2, read-out: IC50 (minimum drug concentration that inhibited CPE by 50%)): 0.14 µg/mL; SI (selectivity index) ([2]; MT-2 cells): > 160"
0.05 µg/mL,"Nc1ccn([C@H]2CC[C@@H](CO)O2)c(=O)n1 [DDC, dideoxycytidine, reference compound]",120,> 63,,,> 52,"side effects (AIDS): undesirable side effects; TC25 (minimum drug concentration that reduced cell viability by 25%) (MT-2 cells; human): > 9.8 µg/mL; TC25 (minimum drug concentration that reduced cell viability by 25%) (CEM cells; human): 5.3 µg/mL; IC50 [2, 5]: 0.44 µg/mL"
,"CNc1ncnc2c1ncn2[C@H]1CC[C@@H](CO)S1 [N^6 -Methyl-4'-thio-2',3'-dideoxyadenosine]",,,,> 100 µg/mL,1.0,
,O=c1[nH]cnc2c1ncn2[C@H]1CC[C@@H](CO)O1 [dideoxyinosine],,,,,,side effects (AIDS): undesirable side effects
